From ChEMBL document CHEMBL1201862, “PubChem BioAssay data set” (2004)
Active and inactive are the calls of the source. Non-standard residues stand in square brackets, D forms with d. Residues, ends and D or L forms follow the SMILES beside them. ξ: configuration not given here. *: point of attachment. ξF = NC(Cc1ccccc1)C(=O)O; Cbz = O=C(OCc1ccccc1)*

Columns and labels:
[1] = target: Luciferin 4-monooxygenase (Photinus pyralis, UniProt P08659); experiment: firefly luciferase enzyme inhibitors, dose response, biochemical, luminescence (AID 1891)
[2] = Luminescence Cell-Based Dose Confirmation HTS to Identify Inhibitors of Platelet Dense Granule Release. [Related pubchem assays: 1663 (Primary HTS), 1678 (Summary of Project)]; assay type: functional
[3] = target: FAD-linked sulfhydryl oxidase ALR (Homo sapiens, UniProt P55789); experiment: inhibitors of human ALR sulfhydryl oxidase, dose response, biochemical, H2O2 detection, luminescence, cherry-pick (AID 493248)
[4] = cells; assay type: functional, cell-based
[5] = cells; assay type: functional, cell-based; remark: listed apart in the source
[6] = target: T1, Heat shock factor protein 1 (Mus musculus, UniProt P38532); experiment: inhibition of MG132-induced HSE-luciferase signal, confirmation, cell-based, NIH3T3, luminescence, dose retest (AID 2382); assay type: functional;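 also: NIH3T3 fibroblasts with HSF1-driven luciferase reporter stressed by proteasome inhibitor MG132; luminescence from HSF1-driven luciferase expression after 8 hours of MG132 stress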
T1 sequence (P38532 whole entry): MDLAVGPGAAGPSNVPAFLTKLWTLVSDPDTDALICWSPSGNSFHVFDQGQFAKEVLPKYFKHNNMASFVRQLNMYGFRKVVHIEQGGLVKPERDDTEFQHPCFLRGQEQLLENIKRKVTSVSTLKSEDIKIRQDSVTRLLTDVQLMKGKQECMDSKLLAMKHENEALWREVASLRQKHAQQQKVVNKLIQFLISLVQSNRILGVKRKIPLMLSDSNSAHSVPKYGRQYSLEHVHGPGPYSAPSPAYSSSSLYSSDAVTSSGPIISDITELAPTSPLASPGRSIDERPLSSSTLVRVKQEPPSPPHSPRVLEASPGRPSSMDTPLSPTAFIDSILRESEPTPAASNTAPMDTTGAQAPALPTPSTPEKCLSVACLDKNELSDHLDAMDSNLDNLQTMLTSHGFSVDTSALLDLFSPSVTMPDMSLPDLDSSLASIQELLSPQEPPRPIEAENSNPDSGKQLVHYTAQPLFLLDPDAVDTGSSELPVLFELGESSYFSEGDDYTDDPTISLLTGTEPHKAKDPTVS

[7] = target: T2, Ubiquitin-conjugating enzyme E2 N (Homo sapiens, UniProt P61088); assay type: functional;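 also: Dose-response confirmation in a TR-FRET assay detecting UBC13-driven polyubiquitin chain formation, inhibition measured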
T2 sequence (P61088 whole entry): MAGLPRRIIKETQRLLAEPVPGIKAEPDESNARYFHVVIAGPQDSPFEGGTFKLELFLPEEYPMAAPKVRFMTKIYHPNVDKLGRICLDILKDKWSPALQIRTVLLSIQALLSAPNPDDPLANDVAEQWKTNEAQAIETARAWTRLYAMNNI

[8] = target: T3, Replicative DNA helicase DnaB (Mycobacterium tuberculosis, UniProt P9WMR3); experiment: DnaB intein splicing inhibitors, dose response, biochemical, cell-free fluorescence (AID 449749); assay type: functional
T3 sequence (P9WMR3 whole entry): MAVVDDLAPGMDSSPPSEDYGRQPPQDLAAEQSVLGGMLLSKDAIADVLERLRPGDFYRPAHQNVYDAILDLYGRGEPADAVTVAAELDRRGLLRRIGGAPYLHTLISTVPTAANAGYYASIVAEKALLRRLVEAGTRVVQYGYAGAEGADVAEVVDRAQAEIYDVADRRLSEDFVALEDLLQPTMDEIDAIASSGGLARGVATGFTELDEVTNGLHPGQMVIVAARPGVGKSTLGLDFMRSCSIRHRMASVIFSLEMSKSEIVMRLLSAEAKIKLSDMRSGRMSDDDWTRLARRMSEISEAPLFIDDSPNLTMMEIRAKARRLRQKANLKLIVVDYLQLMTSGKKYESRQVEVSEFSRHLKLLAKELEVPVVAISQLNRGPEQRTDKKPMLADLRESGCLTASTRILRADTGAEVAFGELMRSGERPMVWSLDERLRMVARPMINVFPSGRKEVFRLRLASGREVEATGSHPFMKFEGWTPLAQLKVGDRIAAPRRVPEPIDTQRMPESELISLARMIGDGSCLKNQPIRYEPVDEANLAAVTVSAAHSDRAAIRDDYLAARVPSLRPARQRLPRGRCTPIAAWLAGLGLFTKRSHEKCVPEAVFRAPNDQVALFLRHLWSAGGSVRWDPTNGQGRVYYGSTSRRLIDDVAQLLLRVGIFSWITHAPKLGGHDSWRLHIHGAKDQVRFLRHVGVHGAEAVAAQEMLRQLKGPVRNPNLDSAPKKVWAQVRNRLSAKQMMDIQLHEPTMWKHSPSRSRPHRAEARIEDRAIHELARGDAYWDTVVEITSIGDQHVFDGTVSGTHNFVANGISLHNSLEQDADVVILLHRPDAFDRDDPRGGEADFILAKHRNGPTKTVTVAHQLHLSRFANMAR

[9] = target: T4, Protein RecA (Mycobacterium tuberculosis, UniProt P9WHJ3); experiment: Fluorescence Cell-Free Homogeneous Dose Retest to Identify Inhibitors of RecA-Intein Splicing Activity. [Related pubchem assays (depositor defined):AID2097, AID2223, AID489010, AID492950]; assay type: functional
T4 sequence (P9WHJ3 whole entry): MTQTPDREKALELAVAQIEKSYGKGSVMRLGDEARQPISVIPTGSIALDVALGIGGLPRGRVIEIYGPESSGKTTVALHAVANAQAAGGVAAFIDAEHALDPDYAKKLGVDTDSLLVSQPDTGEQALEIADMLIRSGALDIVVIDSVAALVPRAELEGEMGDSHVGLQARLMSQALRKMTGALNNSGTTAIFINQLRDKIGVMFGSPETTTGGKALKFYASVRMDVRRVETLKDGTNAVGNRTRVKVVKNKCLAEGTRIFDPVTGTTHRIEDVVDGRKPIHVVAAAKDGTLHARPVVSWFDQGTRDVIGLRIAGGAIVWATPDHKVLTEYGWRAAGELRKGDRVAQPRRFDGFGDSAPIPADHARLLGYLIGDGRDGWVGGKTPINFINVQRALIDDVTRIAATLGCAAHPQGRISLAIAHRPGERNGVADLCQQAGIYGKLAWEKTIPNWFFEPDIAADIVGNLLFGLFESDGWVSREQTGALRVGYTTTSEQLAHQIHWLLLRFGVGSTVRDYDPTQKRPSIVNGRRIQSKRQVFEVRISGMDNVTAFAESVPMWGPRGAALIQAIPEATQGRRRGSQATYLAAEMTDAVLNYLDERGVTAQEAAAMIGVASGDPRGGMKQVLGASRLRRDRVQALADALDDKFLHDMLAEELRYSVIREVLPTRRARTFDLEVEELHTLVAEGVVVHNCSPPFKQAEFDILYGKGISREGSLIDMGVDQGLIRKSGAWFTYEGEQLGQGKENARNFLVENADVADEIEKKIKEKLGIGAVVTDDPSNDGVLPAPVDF

[10] = target: Nonstructural protein 1 (Influenza A virus, UniProt Q194T2); assay type: functional, Influenza A virus (A/California/07/2009(H1N1))
[11] = HEp-2 cell cytotoxicity, dose response, cytotoxicity control for RSV inhibitor project, HTS (AID 2410); assay type: functional; conditions: human respiratory syncytial virus
[12] = target: Cytochrome P450 3A4 (Homo sapiens, UniProt P08684);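 also: CYP3A4 tested as one member of a cytochrome P450 panel screen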
[13] = Shn3 3'UTR reporter inhibitors, dose response, cell-based, Clone20 osteoblasts, firefly luciferase, cherry-picked (AID 624132); assay type: functional;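 also: firefly luciferase luminescence from reporter carrying the Shn3 3'UTR in osteoblasts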

Sequence of FAD-linked sulfhydryl oxidase ALR (P55789 whole entry): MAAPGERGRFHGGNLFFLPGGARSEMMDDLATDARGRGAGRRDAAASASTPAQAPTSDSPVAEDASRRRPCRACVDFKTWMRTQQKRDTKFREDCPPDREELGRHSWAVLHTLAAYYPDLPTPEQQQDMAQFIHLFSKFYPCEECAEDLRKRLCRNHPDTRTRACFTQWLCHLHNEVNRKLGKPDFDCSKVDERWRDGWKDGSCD
Sequence of Luciferin 4-monooxygenase (P08659 whole entry): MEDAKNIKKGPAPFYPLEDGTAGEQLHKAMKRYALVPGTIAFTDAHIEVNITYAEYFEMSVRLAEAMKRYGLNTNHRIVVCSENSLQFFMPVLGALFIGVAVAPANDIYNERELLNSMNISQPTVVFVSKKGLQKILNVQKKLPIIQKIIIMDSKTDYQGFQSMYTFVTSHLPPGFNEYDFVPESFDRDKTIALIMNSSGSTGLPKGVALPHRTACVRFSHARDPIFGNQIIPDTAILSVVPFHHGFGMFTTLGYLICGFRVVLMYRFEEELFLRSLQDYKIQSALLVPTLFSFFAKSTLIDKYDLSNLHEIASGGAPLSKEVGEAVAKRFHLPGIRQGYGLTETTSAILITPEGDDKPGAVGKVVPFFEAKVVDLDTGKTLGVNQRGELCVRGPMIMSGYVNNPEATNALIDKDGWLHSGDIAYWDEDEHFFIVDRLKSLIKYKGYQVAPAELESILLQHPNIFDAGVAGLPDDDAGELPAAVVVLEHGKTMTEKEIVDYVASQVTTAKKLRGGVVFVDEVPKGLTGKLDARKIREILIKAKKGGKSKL
Sequence of Nonstructural protein 1 (Q194T2 whole entry): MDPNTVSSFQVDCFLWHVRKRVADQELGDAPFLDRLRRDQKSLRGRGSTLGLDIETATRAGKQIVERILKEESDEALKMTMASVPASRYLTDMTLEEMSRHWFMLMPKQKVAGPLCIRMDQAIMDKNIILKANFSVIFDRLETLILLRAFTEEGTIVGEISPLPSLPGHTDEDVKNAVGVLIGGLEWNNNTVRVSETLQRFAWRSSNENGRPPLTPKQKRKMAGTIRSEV
Sequence of Cytochrome P450 3A4 (P08684 whole entry): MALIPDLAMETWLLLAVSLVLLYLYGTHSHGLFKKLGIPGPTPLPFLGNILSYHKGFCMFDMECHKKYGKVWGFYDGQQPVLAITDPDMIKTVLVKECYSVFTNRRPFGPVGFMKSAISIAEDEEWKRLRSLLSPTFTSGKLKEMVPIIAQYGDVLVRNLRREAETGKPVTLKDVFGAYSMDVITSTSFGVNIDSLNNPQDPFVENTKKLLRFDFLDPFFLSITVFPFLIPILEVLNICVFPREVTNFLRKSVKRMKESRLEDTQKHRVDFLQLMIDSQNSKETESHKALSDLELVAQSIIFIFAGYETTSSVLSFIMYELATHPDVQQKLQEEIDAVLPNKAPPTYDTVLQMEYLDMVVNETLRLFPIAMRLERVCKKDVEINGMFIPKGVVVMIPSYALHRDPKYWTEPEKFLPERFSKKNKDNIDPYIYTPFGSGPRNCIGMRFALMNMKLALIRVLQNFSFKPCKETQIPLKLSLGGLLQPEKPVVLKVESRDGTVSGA

Structure (SMILES): COc1cccc(CNC(=O)c2cc(S(=O)(=O)N3CCOCC3)cn2C)c1
- EC50 [1]: > 112 µM (not active)
- EC50 [2]: > 112 µM (not active)

Structure (SMILES): CN(C)c1cccc(C(=O)NCc2ccccc2)c1
- AC50 [3]: 5.25 µM (active)

Structure (SMILES): Cc1cccc(NC(=O)c2ccc(NCCO)c([N+](=O)[O-])c2)n1
- EC50 [1]: > 112 µM (not active)
- EC50 [2]: 25.5 µM (active)

Structure (SMILES): COc1cccc(-n2c(S)nnc2CCn2nc(C)c([N+](=O)[O-])c2C)c1
- AC50 [3]: 10.6 µM (active)

Structure (SMILES): CCOC(=O)C1CCN(c2ncnc3cc(OC)c(OC)cc23)CC1
- EC50 [1]: > 112 µM (not active)
- EC50 [2]: 9.14 µM (active)

Structure (SMILES): CN(CC(=O)Nc1ccccc1Oc1ccccc1)Cc1ccccc1F
- EC50 [4]: > 350 µM (not active)
- EC50 [5]: > 350 µM (not active)

Structure (SMILES): CCOC(=O)C1(Cc2cccc(OC)c2)CCN(CC=C(C)C)CC1
- EC50 [1]: > 112 µM (not active)
- EC50 [2]: 21.4 µM (active)

Structure (SMILES): NC(=O)c1nsc(C(=O)N(c2cccc(F)c2)C(C(=O)NC2CCCC2)c2ccco2)c1N (stereo not given)
- EC50 [6]: > 195 µM (not active)
- IC50 [7]: > 20 µM (inactive)

Structure (SMILES): N#CC1=C(N)Oc2[nH]nc(-c3cccs3)c2C1c1ccncc1 (stereo not given)
- AC50 [8]: 31 µM (active)
- EC50 [9]: 5.36 µM (active)

Structure (SMILES): Cc1ccc(N2C(=O)CSC2c2cccnc2)cc1F (stereo not given)
- AC50 [3]: 0.193 µM (active)

Structure (SMILES): COc1ccc(C2C(C#N)=C(N)Nc3onc(C(C)(C)C)c32)c(OC)c1 (stereo not given)
- IC50 [10]: > 100 µM (active)

Structure (SMILES): COc1ccc(CN2CCNC(=O)C2CC(=O)NC2CCCC2)c(OC)c1 (stereo not given)
- EC50 [4]: > 350 µM (not active)
- EC50 [5]: > 350 µM (not active)

Structure (SMILES): Cc1ccc2cc(CN(Cc3ccco3)C(=O)C3CCCCC3)c(O)nc2c1C
- EC50 [1]: > 112 µM (not active)
- EC50 [2]: > 112 µM (not active)

Structure (SMILES): Sc1nnc(-c2cccc3ccccc23)n1-c1cccnc1
- AC50 [3]: 8.24 µM (active)

Structure (SMILES): Cc1cccc(Sc2c([N+](=O)[O-])ncn2C)c1
- AC50 [3]: 0.265 µM (active)

Structure (SMILES): Cc1ccc(-c2csc(NC(=O)C[n+]3cc(-c4ccc(C)cc4)n4c3CCC4)n2)cc1
- IC50 [7]: > 20 µM (inactive)

Structure (SMILES): Oc1cccc(Nc2nc(-c3ccccc3Cl)nc3ccccc23)c1
- CC50 [11]: 27.1 µM (active)
- AC50 [8]: 138 µM (active)
- EC50 [9]: > 380 µM (inactive)

Structure (SMILES): COC(=O)Cc1cc(O)nc(Nc2nc3ccccc3o2)n1
- IC50 [7]: > 20 µM (inactive)

Structure (SMILES): CCc1nnc(NC(=O)[C@@H](NC(=O)c2ccc(OC)cc2)C(C)C)s1
- EC50 [1]: > 112 µM (not active)
- EC50 [2]: > 112 µM (not active)

Structure (SMILES): CCCOC(=O)c1ccc(OC(=O)c2ccco2)cc1
- AC50 [8]: 13 µM (active)
- EC50 [9]: 11.8 µM (active)

Structure (SMILES): O=C1NC(=O)/C(=C/c2ccc(OS(=O)(=O)c3ccc(F)cc3F)cc2)N1
- EC50 [4]: > 350 µM (not active)
- EC50 [5]: > 350 µM (not active)

Structure (SMILES): COc1cccc(NC(=O)N2CCN(c3cccc(C)c3)C(C)C2)c1 (stereo not given)
- AC50 [3]: 6.28 µM (active)

Structure (SMILES): CCN(c1ccc(NC(=O)COC(=O)c2ccc3ccccc3n2)cc1)C(C)C
- IC50 [10]: 93.5 µM (active)
- AC50 [12]: 39.8 µM (inconclusive)

Structure (SMILES): CC(C)N(c1ccccc1)c1ncnc(NCCC(=O)O)c1[N+](=O)[O-]
- EC50 [4]: > 350 µM (not active)
- EC50 [5]: > 350 µM (not active)

Structure (SMILES): CCOc1ccc(-c2nc(CCl)cs2)cc1
- EC50 [1]: 40.7 µM (active)
- EC50 [2]: > 112 µM (not active)

Structure (SMILES): Cc1cccc(C)c1NC(=O)C1CCCN1S(=O)(=O)c1ccc(-c2ccc(O)nn2)s1 (stereo not given)
- EC50 [1]: > 112 µM (not active)
- EC50 [2]: 47.1 µM (active)

Structure (SMILES): Cc1n[nH]c(O)c1C(c1ccc(O)c(Br)c1)c1c(C)n[nH]c1O
- AC50 [8]: 0.326 µM (active)
- EC50 [9]: 0.232 µM (active)

Structure (SMILES): COc1cc2c(cc1OC)C(c1ccccc1)N(S(C)(=O)=O)CC2 (stereo not given)
- EC50 [4]: > 350 µM (not active)
- EC50 [5]: > 350 µM (not active)

Structure (SMILES): Cc1cccc(-c2noc(CN(C)S(=O)(=O)c3cc(Cl)ccc3Cl)n2)c1
- EC50 [4]: > 350 µM (not active)
- EC50 [5]: > 350 µM (not active)

Structure (SMILES): N#CC(c1ccccc1)c1cnccn1 (stereo not given)
- AC50 [8]: > 380 µM (inactive)
- EC50 [9]: > 380 µM (inactive)

Structure (SMILES): CCCc1cc(C(=O)N2CCCC(N3CCN(c4ccc(F)cc4)CC3)C2)no1 (stereo not given)
- AC50 [3]: > 100 µM (inactive)

Structure (SMILES): OCCN(Cc1cccnc1)Cc1ccccn1
- IC50 [10]: 4.64 µM (active)

Structure (SMILES): Cc1cccc(N2CCN(C(=O)c3ccncc3)CC2C)c1 (stereo not given)
- AC50 [3]: 9.32 µM (active)

Structure (SMILES): CCCCN1CC(COCc2ccccc2)Oc2cccc(Oc3cc(C)c(C)c(C)c3)c2S1(=O)=O (stereo not given)
- AC50 [13]: 9.16 µM (active)

Structure (SMILES): Cc1csc(=O)n1CC(=O)OCC(=O)c1c(N)n(C)c(=O)n(C)c1=O
- AC50 [13]: 27.1 µM (active)

Structure (SMILES): O=C(N/N=C/c1ccc(-c2ccccc2[N+](=O)[O-])o1)[C@H]1C[C@@H]1c1ccccc1
- CC50 [11]: 18.3 µM (active)
- AC50 [8]: 8.14 µM (active)
- EC50 [9]: 18.9 µM (active)

Structure (SMILES): CCOC(=O)C(Cc1ccccc1)NC(=O)CNC(=O)CNC(=O)OCc1ccccc1 (stereo not drawn) (Cbz-Gly-Gly-[ξF]-OEt)
- EC50 [1]: > 112 µM (not active)
- EC50 [2]: 25 µM (active)

Structure (SMILES): CC1=NN(c2ccccc2)C(=O)C1 [EDARAVONE]
- AC50 [8]: 2.75 µM (active)
- EC50 [9]: 2.95 µM (active)

Structure (SMILES): CCOC(=O)c1cc(-c2ccccc2)nc2ccc(C)cc12 [NEOCINCHOPHEN]
- IC50 [7]: > 20 µM (inactive)
